Reference: patent US12000819B2, “Gas concentration prediction method” (DAIKIN INDUSTRIES, LTD., priority 2018, dated 2024)

Assay: Concentration of gas dissolved in cell culture liquid or pure water after bubbling, measured by gas chromatography
Assay type: physicochemical
Conditions: for Correction coefficient α: ratio of average gas concentrations in cell culture liquid and pure water
Method: The gas shown in Table 1 was bubbled at 20 mL/min for 1 minute in 5 mL of a cell culture medium (liquid containing 6.4 g/L of sodium chloride, 4.7 g/L of D-glucose, 3.7 g/L of sodium bicarbonate, L-lysine hydrochloride, 0.84 g/L of L-arginine hydrochloride, 0.58 g/L of L-glutamine, and 0.3 g/L of calcium chloride) or in 5 mL of purified water, at a liquid temperature of 23° C.; and dissolved. Subsequently, the concentration of a gas dissolved in the cell culture liquid or pure water was measured by gas chromatography (Shimadzu Corporation). Each measurement was repeated three times, and the average gas concentration was calculated. The correction coefficient α was then obtained by dividing the average gas concentration in the cell culture liquid by the average gas concentration in the pure water.
At a later date, the same measurements as above were performed, and the correction coefficient was calculated in the same manner.

[1] = Table 1, gas bubbled at 20 mL/min for 1 minute in 5 mL cell culture medium, liquid temperature 23° C., average of three measurements
[2] = Table 1, gas bubbled at 20 mL/min for 1 minute in 5 mL purified water, liquid temperature 23° C., average of three measurements
[3] = Table 2, repeated at a later date
[4] = Table 2, same measurements repeated at a later date, cell culture medium, 23° C.
[5] = Table 2, same measurements repeated at a later date, purified water, 23° C.

Structure (SMILES)	Gas concentration, Cell culture liquid [1] [ppm]	Gas concentration, Pure water [2] [ppm]	Correction coefficient α (Table 1)	Correction coefficient α [3]	Gas concentration, Cell culture liquid [4] [ppm]	Gas concentration, Pure water [5] [ppm]
C=C(F)C(F)(F)F [CF3—CF═CH2]	262	331	1.26	1.25	288	360
FCF [CH2F2]	2972	4140	1.39	1.36	2701	3673
FCC(F)(F)F [CH2F—CF3]	529	656	1.24	1.26	599	755
FC(F)Cl [CHF2Cl]	1785	2399	1.34	1.33	1820	2421
